{
  "source": "patent US5030012A",
  "about": "“Pyroelectric calorimeter” (The United States of America as represented by the …, priority 1990, dated 1991)",
  "key": {"[1]": {"test_system": "dark-adapted bullfrog retinas (rods)", "test": "Pyroelectric calorimetry and transretinal voltage of flash-stimulated dark-adapted retinas", "format": "cell-based, bullfrog (R. catesbiana)", "method": "Dark-adapted bullfrog (R. catesbiana) retinas, removed under infrared illumination, were stored for 10 min to 1 hr in an oxygenated bath containing (in mM) Na^+ : 100, K^+ : 2.7, Ca^++ : 1.4, Mg^++ : 0.5, phosphate: 0.5, HEPES: 10, glucose: 11, EDTA: 0.01, pH 7.1. Cl^- was the main anion. Disks 6.3 mm. across were cut from a retina and attached by their vitreal surfaces to 25 μm. thick nylon mesh (Small Parts, Ltd., Miami, Fla.) disks of the same diameter.\nBefore use, each disk was soaked for 5 min in a medium containing 10 mM glutamate and 5 mM cysteine to suppress electrical responses from all retinal cells except the rods, cones and glial Muller cells. Using an infrared viewer, the disks were placed on the detector with receptor layer down and excess fluid was blotted away. Flowing moist oxygen replaced the atmosphere every 2 m.\n6 μs flashes of spectral width 70 nm. centered at 500, 550 or 640 nm. from a Xenon flash tube were attenuated by a circular graded wedge and fed via a light pipe whose end was projected to a 6 mm circle at the retina. A computerized stepping motor turned the wedge so that flashes of varying intensity could be quickly delivered. The light input at the retina was measured with a silicon photovoltaic diode (International Light, Inc., Newburyport, Mass.). Exposures of the OS were calculated for a rod density in the retinal mosaic of 1.76×10^6 cm^-2. Cone and green rod pigments were neglected and rod porphyropsin was lumped with rhodopsin. Assuming the quantum efficiency of rhodopsin photoisomerization to be 0.6 and its molar absorbance at 550 nm to be 2.0×10^4 M^-1 cm^-1, its isomerization cross section ZR was 4.6×10^-17 cm^2.\nIn retinas incubated in glutamate Ringer containing […] and a ql of 1-2 μK followed by steady cooling lasting for more than 20 s. or until the dark current resumed. A second flash while the dark current was suppressed (as judged by the absence of change in Vr) gave no ql and no change in rl. In 30 experiments, Vr responses, whose amplitudes corresponded to dark currents of 20-50 pA/rod, were accompanied by ql bursts of 0.8 to 2 μK (mean ±s.e.e.: 1.09±0.05, n=24) while rl varied from -2 to -5 μKs^-1.\nql was unchanged by several agents that suppressed the dark current and changed rl. In this regard, the effects of flashes causing 180 PI/rod on retinal temperature and transretinal voltage were studied with an average of 2-4 trials with 60 s intervals between flashes, during which ql recovered. 30 mM ca^++ in the incubation fluid reduced Vr sixfold and changed rl 's sign while ql remained […] (n=4) μK. […] Nevertheless, a 180 PI/OS flash produced a ql of 1.6±0.1 (n=3) μK and rl of 4 μK/s."}, "[2]": {"target": "cGMP-induced cationic conductance of rod outer segment membrane patches", "details": "cited from earlier work"}},
  "data": [
    {"smiles": "CC(C)Cn1c(=O)n(C)c(=O)c2[nH]cnc21", "note": "[IBMX]", "values": [
      {"measurement": "Vr (transretinal voltage response)", "setting": "[1]; 500 IBMX, 180 PI/rod", "result": "suppressed"},
      {"measurement": "ql (fast heat burst)", "setting": "[1]; 500 IBMX, 180 PI/rod", "result": "suppressed"},
      {"measurement": "Vr (transretinal voltage response)", "setting": "[1]; 500 IBMX, tenfold brighter flashes", "result": "slow Vr waves"},
      {"measurement": "ql (delayed heat)", "setting": "[1]; 500 IBMX, tenfold brighter flashes, n=6", "result": "2.1±0.1", "unit": "μK"}
    ]},
    {"smiles": "Nc1nc2c(ncn2[C@@H]2O[C@@H]3COP(=O)(O)O[C@H]3[C@H]2O)c(=O)[nH]1", "note": "[cGMP]", "values": [
      {"measurement": "Kd", "setting": "[2]; membrane patch conductance vs free [cGMP], various studies, read-out: dissociation constant Kc", "result": "10 to 42", "unit": "µM"},
      {"measurement": "concentration at which the cationic conductance of outer segment membranes increases rapidly and reversibly", "setting": "[2]; outer segment membranes", "result": "> 5", "unit": "µM"}
    ]},
    {"smiles": "c1c[nH]cn1", "note": "[imidazole]", "values": [
      {"measurement": "ql (fast heat burst)", "setting": "[1]; 20 mM imidazole in incubation medium, n=3", "result": "2.4±0.4", "unit": "μK"}
    ]},
    {"smiles": "C[C@@H]1O[C@@H](O[C@H]2C[C@@H](O)[C@]3(CO)[C@H]4[C@H](O)C[C@]5(C)[C@@H](C6=CC(=O)OC6)CC[C@]5(O)[C@@H]4CC[C@]3(O)C2)[C@H](O)[C@H](O)[C@H]1O", "note": "[ouabain]", "values": [
      {"measurement": "Vr (transretinal voltage response)", "setting": "[1]; 50 μM ouabain, 10 m. incubation", "result": "no Vr"},
      {"measurement": "rl (steady heat flux)", "setting": "[1]; 50 μM ouabain, 180 PI/OS flash", "result": 4, "unit": "μK/s"},
      {"measurement": "ql (fast heat burst)", "setting": "[1]; 50 μM ouabain, 180 PI/OS flash, n=3", "result": "1.6±0.1", "unit": "μK"}
    ]}
  ]
}
